Like-named read-outs stand apart in the source and are kept apart here.
Experiments:
[1] = UV–vis spectra and optimal isomerization wavelengths; assay type: physicochemical; settings: for λcis (optimal wavelength trans to cis) / λtrans (optimal wavelength cis to trans): UV–vis at 25–50 μM in DMSO, Teleopto plates (Table 1)
Method: Ultraviolet–visible (UV–vis) spectra were recorded using a Tecan Spark 20M Multimode Microplate reader. Samples (200 μL of compound solution/well) were prepared at […] in DMSO. Samples were measured between 300 and 800 nm with 2 nm fixed intervals in 96-well transparent plates. Illumination at different wavelengths was performed for 2 min using 96-well LED array plates (LEDA Teleopto) placed below the samples. […] Potencies were measured using a Thorlabs PM100D power energy meter connected with a standard photodiode power sensor (S120VC).

human recombinant HDAC1 = target: T1, human recombinant HDAC1 (Homo sapiens, UniProt Q13547); experiment: Fluorogenic assay with human recombinant HDAC1, dark or illumination; assay type: biochemical; settings: for relative activity of cis and trans forms: dark vs light, in words
T1 construct: purchased BPS Bioscience
Method: To study the inhibition of HDAC enzymes by the compounds, we used a fluorogenic assay with human recombinant HDAC1.[32] The enzyme was incubated with an acetylated substrate and each inhibitor for 1 h at room temperature, under either dark or light conditions. We opted for illumination throughout the incubation period to maintain the maximum proportion of cis under light conditions. […] Then, the deacetylated substrate generated a fluorescent coumarin after incubation of the mixture with trypsin at 37 °C for 20 min.
Stock solutions of the compounds were diluted to 1 mM in DMSO and then heated to 60 or 80 °C to obtain solutions with the maximum amount of the trans isomer (dark). […] The 1 mM solutions were then serially diluted with HDAC buffer to 10 times the desired concentration, maintaining DMSO at 10%.
In control wells without the compound, inhibitor, or enzyme, HDAC buffer was added instead. […] Then, 50 μL of the stop solution was added and the plates were incubated at 37 °C for 20 min in the dark. Fluorescence was measured at a λem of 460 nm and a λex of 380 nm. Enzyme activity is expressed as a percentage with respect to the nontreated cells, after subtracting the blank (well with no enzyme and no compound).

HeLa cells = experiment: HeLa cell viability, MTS assay, dark or preillumination; assay type: cell-based; settings: for IC50: Homo sapiens, HeLa; for IC50(dark)/IC50(light): Table 5; for activity under dark and illumination conditions: in words
Method: We then proceeded to evaluate the effect of the compounds in a viability assay against HeLa cells.
HeLa, MCF7, and HT29 cells were maintained in adherent cultures in DMEM supplemented with 10% FBS. KG1 cells were maintained in a suspension culture in IMDM supplemented with 20% FBS.
Stock solutions of the compounds were heated to 60 or 80 °C to obtain solutions with the maximum amount of the trans isomer (dark). […] The solutions were then serially diluted with DMEM to give 20 times the desired final concentration, maintaining DMSO at 10%.
Cells were seeded in 96-well black flat bottom plates with a clear bottom at a density of 5 × 10^3 cells/well (HeLa) or 1 × 10^4 cells/well (MCF7, HT29, and KG1), in a volume of 95 μL.
Viability of HeLa, MCF7, and […] cells was determined with a CellTiter 96 assay (Promega), according to the manufacturer’s instructions. Briefly, 20 μL of CellTiter 96 reagent was added to each well, the plates were incubated at 37 °C for 2 h, and the absorbance at 490 nm was recorded. Viability is expressed as a percentage with respect to the nontreated cells.

[2] = E/Z composition under light or temperature conditions by HPLC; assay type: physicochemical
[3] = UV–vis spectra at 25–50 μM in DMSO (Table 1)
[4] = dark vs 365 or 380 nm (Table 2), fold
[5] = dark, 1 h at room temperature (Table 2), read-out: IC50 dark
[6] = illumination 365 or 380 nm, 1 h at room temperature (Table 2), read-out: IC50 light
[7] = dark, 48 h, read-out: IC50 dark (concentration that reduces cell viability by half)
[8] = preillumination 380 nm, 48 h, read-out: IC50 light (concentration that reduces cell viability by half)
[9] = supplementary CSV, read-out: HeLa MTS IC50 light
[10] = HPLC at isosbestic point (310–338 nm), 100 μM in DMSO after illumination with λcis (Table 1)
[11] = HPLC at isosbestic point (310–338 nm), 100 μM in DMSO after illumination with λtrans (Table 1)
[12] = continuous illumination 550 nm (Table 4), read-out: IC50 light
[13] = supplementary CSV, read-out: HDAC1 IC50 light
[14] = UV–vis spectra at 25–100 μM in DMSO (Table 3)
[15] = HPLC at isosbestic point (290–336 nm), 100 μM in DMSO after illumination with λcis (Table 3)
[16] = HPLC at isosbestic point (290–336 nm), 100 μM in DMSO after illumination with λtrans (Table 3)
[17] = dark (Table 4), read-out: IC50 dark
[18] = supplementary CSV, read-out: HDAC1 IC50 dark

T1 sequence (Q13547 whole entry): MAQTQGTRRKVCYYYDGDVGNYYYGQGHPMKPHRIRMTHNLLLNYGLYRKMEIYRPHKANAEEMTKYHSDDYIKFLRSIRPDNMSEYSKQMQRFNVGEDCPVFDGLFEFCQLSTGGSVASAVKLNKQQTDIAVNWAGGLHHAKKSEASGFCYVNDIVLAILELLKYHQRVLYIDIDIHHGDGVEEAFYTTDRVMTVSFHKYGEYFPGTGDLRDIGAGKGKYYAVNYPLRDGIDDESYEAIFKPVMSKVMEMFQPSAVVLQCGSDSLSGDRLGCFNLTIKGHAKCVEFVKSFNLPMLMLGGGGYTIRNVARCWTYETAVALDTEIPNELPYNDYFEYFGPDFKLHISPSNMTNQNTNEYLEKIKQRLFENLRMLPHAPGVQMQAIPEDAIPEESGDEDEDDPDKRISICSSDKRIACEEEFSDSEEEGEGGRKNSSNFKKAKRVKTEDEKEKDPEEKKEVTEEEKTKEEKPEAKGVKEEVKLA

SMILES	λcis (optimal wavelength trans to cis) [1] [nm]	λmax trans [1, 3] [nm]	λcis [1, 14] [nm]	λmax cis [1, 14] [nm]	λmax trans [1, 14] [nm]	λtrans [1, 14] [nm]	% cis at λcis [2, 15] [%]	% trans at λtrans [2, 16] [%]	IC50(dark)/IC50(light) (human recombinant HDAC1; Table 4)	IC50 (human recombinant HDAC1; [17]) [µM]	also measured
CN(C)c1ccc(/N=N/c2ccc(/C=C/C(=O)Nc3ccccc3N)cc2)cc1 [Compound 12, (E)-N-(2-Aminophenyl)-3-(4-((E)-(4-(dimethylamino)phenyl)diazenyl)phenyl)acrylamide]	470	462	–	–	–	–	–	–	–	–	–
COc1ccc(/N=N/c2ccc(C(=O)NO)cc2)cc1 [Compound 17, (E)-N-Hydroxy-4-((4-methoxyphenyl)diazenyl)benzamide]	380	360	–	–	–	–	–	–	–	–	IC50(dark)/IC50(light) (human recombinant HDAC1; [4]): 0.14; relative activity of cis and trans forms (human recombinant HDAC1): more active in the trans form than in the cis form; IC50 (human recombinant HDAC1; [5]): 0.42 µM; IC50 (human recombinant HDAC1; [6]): 2.9 µM; IC50 (HeLa cells; [7]): ~25 µM; IC50 (HeLa cells; [8]): ~25 µM; IC50 (HeLa cells; supplementary CSV, read-out: HeLa MTS IC50 dark): 25 µM; IC50 (HeLa cells; [9]): 25 µM; IC50(dark)/IC50(light) (HeLa cells): ≈1; λtrans (optimal wavelength cis to trans) [1]: 550 nm; % cis at λcis [2, 10]: 84%; % trans at λtrans [2, 11]: 92%
COc1ccc(/N=N/c2ccc(C(=O)Nc3ccccc3N)cc2)cc1 [Compound 18, (E)-N-(2-Aminophenyl)-4-((4-methoxyphenyl)diazenyl)benzamide]	380	364	–	–	–	–	–	–	–	–	IC50(dark)/IC50(light) (human recombinant HDAC1; [4]): 6; IC50 (human recombinant HDAC1; [5]): 1.2 µM; IC50 (human recombinant HDAC1; [6]): 0.2 µM; IC50 (HeLa cells; [8]): ~19 µM; IC50 (HeLa cells; [9]): 19 µM; IC50(dark)/IC50(light) (HeLa cells): >5.3; λtrans (optimal wavelength cis to trans) [1]: 550 nm; % cis at λcis [2, 10]: 82%; % trans at λtrans [2, 11]: 79%
CN(C)c1ccc(/N=N/c2ccc(C(=O)NO)cc2)cc1 [Compound 19, (E)-4-((4-(Dimethylamino)phenyl)diazenyl)-N-hydroxybenzamide]	–	446	–	–	–	–	–	–	–	–	–
COc1ccc(/N=N/c2ccc(CCC(=O)Nc3ccccc3N)cc2)cc1 [Compound 21, (E)-N-(2-Aminophenyl)-3-(4-((4-methoxyphenyl)diazenyl)phenyl)propanamide]	380	354	–	–	–	–	–	–	–	–	IC50(dark)/IC50(light) (human recombinant HDAC1; [4]): >2.9; relative activity of cis and trans forms (human recombinant HDAC1): active only in the cis form; IC50 (human recombinant HDAC1; [5]): > 10 µM; IC50 (human recombinant HDAC1; [6]): 3.4 µM; λtrans (optimal wavelength cis to trans) [1]: 550 nm; % cis at λcis [2, 10]: 87%; % trans at λtrans [2, 11]: 84%
COc1cc(F)c(/N=N/c2c(F)cc(/C=C/C(=O)NO)cc2F)c(F)c1 [Compound 39, (E)-3-(4-((E)-(2,6-Difluoro-4-methoxyphenyl)diazenyl)-3,5-difluorophenyl)-N-hydroxyacrylamide]	–	–	550	438	358	455	72	83	2.6	0.14	IC50 (human recombinant HDAC1; [12]): 0.054 µM; IC50 (HeLa cells; [7]): 6.7 µM; IC50 (HeLa cells; preillumination 550 nm, 48 h, read-out: IC50 light (concentration that reduces cell viability by half)): 13 µM; IC50(dark)/IC50(light) (HeLa cells): 0.52

Further lines, with some results ahead:

λcis (optimal wavelength trans to cis) [1] [nm]	λmax trans [1, 3] [nm]	λcis [1, 14] [nm]	λmax cis [1, 14] [nm]	λmax trans [1, 14] [nm]	λtrans [1, 14] [nm]	% cis at λcis [2, 15] [%]	% trans at λtrans [2, 16] [%]	IC50(dark)/IC50(light) (human recombinant HDAC1; Table 4)	IC50 (human recombinant HDAC1; [17]) [µM]	SMILES	also measured
–	–	550	452	338	455	45	88	–	–	COc1cc(Cl)c(/N=N/c2c(Cl)cc(/C=C/C(=O)Nc3ccccc3N)cc2Cl)c(Cl)c1 [Compound 32b, (E)-N-(2-Aminophenyl)-3-(3,5-dichloro-4-((E)-(2,6-dichloro-4-methoxyphenyl)diazenyl)phenyl)acrylamide]	IC50 (human recombinant HDAC1; [12]): ~10 µM; IC50 (human recombinant HDAC1; [13]): 10 µM
–	–	380	448	388	550	67	59	≈22	~10	COc1ccc(/N=N/c2ccc(/C=C/C(=O)Nc3ccccc3N)cc2F)c(F)c1 [Compound 32d, (E)-N-(2-Aminophenyl)-3-(3-fluoro-4-((E)-(2-fluoro-4-methoxyphenyl)diazenyl)phenyl)acrylamide]	IC50 (human recombinant HDAC1; [18]): 10 µM
–	–	380	464	396	455	64	62	–	> 10	COc1ccc(/N=N/c2ccc(/C=C/C(=O)Nc3ccccc3N)cc2Cl)c(Cl)c1 [Compound 32e, (E)-N-(2-Aminophenyl)-3-(3-chloro-4-((E)-(2-chloro-4-methoxyphenyl)diazenyl)phenyl)acrylamide]	IC50 (human recombinant HDAC1; continuous illumination 380 nm (Table 4), read-out: IC50 light): > 10 µM; IC50 (human recombinant HDAC1; [18]): > 10 µM; IC50 (human recombinant HDAC1; [13]): > 10 µM
–	–	420	–	430	550	–	–	>8.3	–	CN(C)c1cc(F)c(/N=N/c2c(F)cc(/C=C/C(=O)Nc3ccccc3N)cc2F)c(F)c1 [Compound 33a, (E)-N-(2-Aminophenyl)-3-(4-((E)-(4-(dimethylamino)-2,6-difluorophenyl)diazenyl)-3,5-difluorophenyl)acrylamide]	activity at the highest tested concentration in the dark (human recombinant HDAC1; 10 μM, dark): no or little activity; IC50 under illumination, in words (human recombinant HDAC1; continuous illumination): low micromolar range; activity under dark and illumination conditions (HeLa cells): inactive
–	–	420	–	412	550	–	–	>2	> 10	CN(C)c1cc(Cl)c(/N=N/c2c(Cl)cc(/C=C/C(=O)Nc3ccccc3N)cc2Cl)c(Cl)c1 [Compound 33b, (E)-N-(2-Aminophenyl)-3-(3,5-dichloro-4-((E)-(2,6-dichloro-4-(dimethylamino)phenyl)diazenyl)phenyl)acrylamide]	activity under dark and illumination conditions (HeLa cells): inactive
–	–	550	452	336	455	46	84	–	–	COc1cc(Cl)c(/N=N/c2c(Cl)cc(C(=O)Nc3ccccc3N)cc2Cl)c(Cl)c1 [Compound 38b, (E)-N-(2-Aminophenyl)-3,5-dichloro-4-((2,6-dichloro-4-methoxyphenyl)diazenyl)benzamide]	–
